Reference: ChEMBL document CHEMBL3991601, “The target landscape of clinical kinase drugs” (Science, 2017)
Counter-ions that a name gives are not always drawn. Calls of active or inactive are those of the source. On the calls: in the data inactive means no Kd found up to 30 µM.

Key:
[1] = target: T1, Mitogen-activated protein kinase kinase kinase 5 (Homo sapiens, UniProt Q99683)
T1 sequence (Q99683 whole entry): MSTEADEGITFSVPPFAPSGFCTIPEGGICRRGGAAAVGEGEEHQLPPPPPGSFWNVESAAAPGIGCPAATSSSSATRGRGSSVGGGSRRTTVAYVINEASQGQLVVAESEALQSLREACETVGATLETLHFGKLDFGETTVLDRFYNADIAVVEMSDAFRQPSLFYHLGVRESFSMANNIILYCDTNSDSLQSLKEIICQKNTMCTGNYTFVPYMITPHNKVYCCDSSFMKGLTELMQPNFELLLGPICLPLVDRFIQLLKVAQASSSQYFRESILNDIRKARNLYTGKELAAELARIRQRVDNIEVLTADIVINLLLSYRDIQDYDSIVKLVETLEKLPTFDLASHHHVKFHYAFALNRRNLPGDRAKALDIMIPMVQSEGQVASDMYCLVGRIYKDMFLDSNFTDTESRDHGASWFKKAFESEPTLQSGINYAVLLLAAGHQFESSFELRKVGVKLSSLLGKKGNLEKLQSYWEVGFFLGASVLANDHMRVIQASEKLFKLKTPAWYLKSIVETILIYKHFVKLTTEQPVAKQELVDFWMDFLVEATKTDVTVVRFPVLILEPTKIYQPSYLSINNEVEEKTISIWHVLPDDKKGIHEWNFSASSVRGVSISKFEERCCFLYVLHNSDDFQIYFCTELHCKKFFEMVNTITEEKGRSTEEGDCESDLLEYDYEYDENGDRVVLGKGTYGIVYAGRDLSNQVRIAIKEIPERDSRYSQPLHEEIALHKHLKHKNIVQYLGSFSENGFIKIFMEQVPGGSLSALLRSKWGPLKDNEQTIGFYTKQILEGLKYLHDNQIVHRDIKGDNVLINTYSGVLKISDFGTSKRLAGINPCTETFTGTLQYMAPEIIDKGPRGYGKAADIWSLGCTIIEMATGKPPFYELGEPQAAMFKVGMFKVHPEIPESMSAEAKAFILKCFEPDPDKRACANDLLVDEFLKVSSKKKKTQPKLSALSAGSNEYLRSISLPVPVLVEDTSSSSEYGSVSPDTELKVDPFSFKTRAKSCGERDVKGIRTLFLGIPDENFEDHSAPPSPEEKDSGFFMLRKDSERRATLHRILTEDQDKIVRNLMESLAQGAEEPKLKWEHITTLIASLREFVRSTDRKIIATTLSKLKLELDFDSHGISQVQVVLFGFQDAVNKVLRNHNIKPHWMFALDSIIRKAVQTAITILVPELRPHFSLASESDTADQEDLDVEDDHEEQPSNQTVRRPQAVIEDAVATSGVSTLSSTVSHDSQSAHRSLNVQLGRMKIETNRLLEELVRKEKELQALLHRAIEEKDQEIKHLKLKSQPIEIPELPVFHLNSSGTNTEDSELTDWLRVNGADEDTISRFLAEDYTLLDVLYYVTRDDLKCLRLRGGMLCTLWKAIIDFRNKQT

[2] = target: T2, Structural maintenance of chromosomes protein 1A (Homo sapiens, UniProt Q14683)
T2 sequence (Q14683 whole entry): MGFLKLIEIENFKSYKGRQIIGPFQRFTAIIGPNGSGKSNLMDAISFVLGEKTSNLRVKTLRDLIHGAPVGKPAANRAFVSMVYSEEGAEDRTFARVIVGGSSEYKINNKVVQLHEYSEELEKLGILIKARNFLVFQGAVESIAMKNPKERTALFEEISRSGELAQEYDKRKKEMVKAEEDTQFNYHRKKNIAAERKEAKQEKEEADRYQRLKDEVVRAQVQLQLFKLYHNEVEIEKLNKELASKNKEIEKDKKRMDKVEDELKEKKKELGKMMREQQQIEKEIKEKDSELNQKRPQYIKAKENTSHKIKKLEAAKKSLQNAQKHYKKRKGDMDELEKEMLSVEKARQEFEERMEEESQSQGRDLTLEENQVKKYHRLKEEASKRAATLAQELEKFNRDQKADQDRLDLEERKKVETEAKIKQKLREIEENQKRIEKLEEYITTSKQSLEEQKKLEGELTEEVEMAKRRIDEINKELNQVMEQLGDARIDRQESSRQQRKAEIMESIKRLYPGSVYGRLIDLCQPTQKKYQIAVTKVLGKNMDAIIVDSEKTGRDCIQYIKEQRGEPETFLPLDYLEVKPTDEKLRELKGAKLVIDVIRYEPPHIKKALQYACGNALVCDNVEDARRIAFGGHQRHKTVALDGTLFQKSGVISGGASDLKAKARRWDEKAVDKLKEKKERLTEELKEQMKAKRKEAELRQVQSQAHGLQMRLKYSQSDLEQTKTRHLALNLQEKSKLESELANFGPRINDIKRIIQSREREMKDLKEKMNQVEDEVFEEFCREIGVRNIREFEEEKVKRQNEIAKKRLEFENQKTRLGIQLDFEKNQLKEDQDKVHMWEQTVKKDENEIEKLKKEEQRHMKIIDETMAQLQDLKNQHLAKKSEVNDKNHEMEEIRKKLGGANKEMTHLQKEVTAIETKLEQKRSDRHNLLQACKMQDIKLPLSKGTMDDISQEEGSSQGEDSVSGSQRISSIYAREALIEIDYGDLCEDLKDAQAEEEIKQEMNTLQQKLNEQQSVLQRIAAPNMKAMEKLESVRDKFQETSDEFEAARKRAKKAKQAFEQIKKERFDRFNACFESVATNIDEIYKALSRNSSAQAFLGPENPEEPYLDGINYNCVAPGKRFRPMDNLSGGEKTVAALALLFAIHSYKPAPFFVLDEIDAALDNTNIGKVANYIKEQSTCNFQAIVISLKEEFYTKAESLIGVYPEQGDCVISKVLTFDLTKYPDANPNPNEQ

Row | SMILES | Kd [1] | Kd [2]
1 | C[C@@H](Oc1cc(C(=O)Nc2ccc(C(=O)N3CCN(C)CC3)cc2)nnc1N)c1c(Cl)ccc(F)c1Cl | > 30 µM (inactive) | > 30 µM (inactive)
2 | C[C@H]1CNCCCN1S(=O)(=O)c1cccc2cncc(F)c12 | > 30 µM (inactive) | > 30 µM (inactive)
3 | CC(=O)c1cnc2ccc(-c3cc(Cl)c(O)c(Cl)c3)nc2c1N[C@H]1CC[C@H](CN(C)C)CC1 | 0.878 µM (active) | > 30 µM (inactive)
4 | CCNC(=O)C#Cc1ccc2c(c1)NC(=O)/C2=C(\Nc1ccc(CN(C)C)cc1)c1ccccc1 | > 30 µM (inactive) | > 30 µM (inactive)
5 | C=CC(=O)N1CCC[C@H](n2c(=O)n(-c3ccc(Oc4ccccc4)cc3)c3c(N)ncnc32)C1 | > 30 µM (inactive) | > 30 µM (inactive)
6 | Cc1nc2cc(-c3nn(C(C)C)c4ncnc(N)c34)ccc2o1 | > 30 µM (inactive) | > 30 µM (inactive)
7 | COCc1c(-c2ccc(NC(=O)Nc3cc(C(F)(F)F)ccc3F)c(F)c2)c2c(N)ncnn2c1CN1CCOCC1 | > 30 µM (inactive) | > 30 µM (inactive)
8 | COc1cc(Nc2ncc3c(n2)-c2ccc(Cl)cc2C(c2c(F)cccc2OC)=NC3)ccc1C(=O)O [ALISERTIB] | > 30 µM (inactive) | > 30 µM (inactive)
9 | Cc1nc(NC(=O)N2CCC[C@H]2C(N)=O)sc1-c1ccnc(C(C)(C)C(F)(F)F)c1 [ALPELISIB] | > 30 µM (inactive) | > 30 µM (inactive)
10 | O=C(Nc1c[nH]nc1-c1nc2cc(CN3CCOCC3)ccc2[nH]1)NC1CC1 [AT-9283] |  | > 30 µM (inactive)
11 | C=CC(=O)Nc1cc2c(Nc3ccc(F)c(Cl)c3)ncnc2cc1C#CC(C)(C)N1CCN(C)CC1 [AV-412 FREE BASE] | > 30 µM (inactive) | > 30 µM (inactive)
12 | CNC(=O)c1ccccc1Sc1ccc2c(/C=C/c3ccccn3)n[nH]c2c1 [AXITINIB] |  | > 30 µM (inactive)
13 | COc1cc([C@@H]2c3cc4c(cc3[C@H](O)[C@H]3COC(=O)[C@@H]23)OCO4)cc(OC)c1OC [AXL-1717] | > 30 µM (inactive) | > 30 µM (inactive)
14 | NC(=O)Nc1cc(-c2cccc(F)c2)sc1C(=O)N[C@H]1CCCNC1 [AZD-7762] | > 30 µM (inactive) | 
15 | Cn1cnc2c(F)c(Nc3ccc(Br)cc3F)c(C(=O)NOCCO)cc21 [BINIMETINIB] | > 30 µM (inactive) | > 30 µM (inactive)
16 | Cc1cc(Nc2ncc(Cl)c(Nc3ccccc3S(=O)(=O)C(C)C)n2)c(OC(C)C)cc1C1CCNCC1 [CERITINIB] | > 30 µM (inactive) | > 30 µM (inactive)

Row | SMILES | Kd [1] | Kd [2]
17 | COc1c(OCCCN2CCOCC2)ccc2c1N=C(NC(=O)c1cnc(N)nc1)N1CCN=C21 [COPANLISIB] | > 30 µM (inactive) | > 30 µM (inactive)
18 | COCC(=O)NC/C=C/c1ccc2ncnc(Nc3ccc(Oc4ccc(C)nc4)c(C)c3)c2c1 [CP-724714] | > 30 µM (inactive) | > 30 µM (inactive)
19 | CCS(=O)(=O)N1CCN(c2ccc(Nc3ncc(C(N)=O)c(NC4CC4)n3)cc2)CC1 [Cerdulatinib Hydrochloride] |  | > 30 µM (inactive)
20 | CC(C)(C)c1nc(-c2cccc(NS(=O)(=O)c3c(F)cccc3F)c2F)c(-c2ccnc(N)n2)s1 [DABRAFENIB] |  | > 30 µM (inactive)
21 | Cn1cc(C2=C(c3cn(C4CCN(Cc5ccccn5)CC4)c4ccccc34)C(=O)NC2=O)c2ccccc21 [ENZASTAURIN] |  | > 30 µM (inactive)
22 | Cc1nc2cc(-n3ncc(C(=O)c4cc5ccccc5[nH]4)c3N)ccc2[nH]1 [FGFR INHIBITOR DEBIO 1347] | > 30 µM (inactive) | > 30 µM (inactive)
23 | O=C(Nc1nc2cccc(-c3ccc(CN4CCS(=O)(=O)CC4)cc3)n2n1)C1CC1 [FILGOTINIB] | > 30 µM (inactive) | > 30 µM (inactive)
24 | Cc1cccc(-c2nn3c(c2-c2ccnc4ccc(C(N)=O)cc24)CCC3)n1 [GALUNISERTIB] | > 30 µM (inactive) | > 30 µM (inactive)
25 | O=C(Nc1cc(C(F)(F)F)cc(C(F)(F)F)c1)c1cc(Cl)ccc1O [IMD-0354] | > 30 µM (inactive) | > 30 µM (inactive)
26 | CNC(=O)c1cccc2cc(Oc3ccnc4cc(OCC5(N)CC5)c(OC)cc34)ccc12 [LUCITANIB] | > 30 µM (inactive) | > 30 µM (inactive)
27 | CNC(=O)c1nn(C)c2c1C(C)(C)Cc1cnc(Nc3ccc(N4CCN(C)CC4)cc3)nc1-2 [MILCICLIB] | > 30 µM (inactive) | > 30 µM (inactive)
28 | CC(=O)NCC(=O)N1[C@@H]2CC[C@H]1c1ccc(Nc3ncc(C(F)(F)F)c(NC4CCC4)n3)cc12 [PF-03814735] |  | > 30 µM (inactive)
29 | O=C(NOCCO)c1cc(CN2OCCCC2=O)c(F)c(F)c1Nc1ccc(I)cc1F [RO-4987655] |  | > 30 µM (inactive)
30 | N#CC[C@H](C1CCCC1)n1cc(-c2ncnc3[nH]ccc23)cn1 [RUXOLITINIB] |  | > 30 µM (inactive)
31 | Cn1ncc(Cl)c1-c1cc(C(=O)N[C@H](CN)Cc2ccc(F)c(F)c2)oc1Cl [UPROSERTIB] | > 30 µM (inactive) | 

More lines, now with the values ahead:

Row | Kd [1] | Kd [2] | SMILES
32 | > 30 µM (inactive) | > 30 µM (inactive) | Nc1ncnc2c1c(-c1cccc(OCc3ccccc3)c1)cn2[C@H]1C[C@@H](CN2CCC2)C1 [AEW-541]
33 | 2.79 µM (active) | > 30 µM (inactive) | Cc1csc(-c2nnc(Nc3ccc(Oc4ncccc4-c4ccnc(N)n4)cc3)c3ccccc23)c1 [AMG-900]
34 | > 30 µM (inactive) | > 30 µM (inactive) | Cc1cc(C(=O)NOCCO)c(Nc2ccc(I)cc2F)n(C)c1=O [AZD-8330]
35 | > 30 µM (inactive) | > 30 µM (inactive) | CCn1c(C(=O)N(C2CC2)C2CC2)cc2c3c(ncn3C)c(Nc3cc(C)n(C)n3)nc21 [BMS-911543]
36 | > 30 µM (inactive) | > 30 µM (inactive) | COc1cc2ncnc(Oc3cccc(NC(=O)Nc4cc(C(C)(C)C(F)(F)F)on4)c3)c2cc1OC [CEP-32496]
37 | > 30 µM (inactive) |  | C#Cc1cccc(Nc2ncnc3cc(OC)c(OCCCCCCC(=O)NO)cc23)c1 [CUDC-101]
38 |  | > 30 µM (inactive) | C[C@@H](Oc1cc(-n2cnc3ccc(CN4CCN(C)CC4)cc32)sc1C(N)=O)c1ccccc1C(F)(F)F [GSK-461364]
39 | > 30 µM (inactive) | > 30 µM (inactive) | CCn1cc(-c2ccnc3[nH]c(-c4cccc(CN(C)C)c4)cc23)c(-c2ccc(NC(=O)N(C)C)cc2)n1 [GSK-1070916]
40 | > 30 µM (inactive) | > 30 µM (inactive) | COc1ccc(S(=O)(=O)N(C(C)=O)c2ccccc2/C=C/c2cc[n+]([O-])cc2)cc1 [HMN-214]
41 | > 30 µM (inactive) |  | Cn1cc(-c2cnn3c(N)c(Br)c([C@@H]4CCCNC4)nc23)cn1 [SCH-900776]
